Data reported in paper PMC2643072 (Journal of medicinal chemistry, 2008).

Target: T1, porcine erythrocyte μ-calpain (Sus scrofa, UniProt P35750)
T1 sequence (P35750 1-714): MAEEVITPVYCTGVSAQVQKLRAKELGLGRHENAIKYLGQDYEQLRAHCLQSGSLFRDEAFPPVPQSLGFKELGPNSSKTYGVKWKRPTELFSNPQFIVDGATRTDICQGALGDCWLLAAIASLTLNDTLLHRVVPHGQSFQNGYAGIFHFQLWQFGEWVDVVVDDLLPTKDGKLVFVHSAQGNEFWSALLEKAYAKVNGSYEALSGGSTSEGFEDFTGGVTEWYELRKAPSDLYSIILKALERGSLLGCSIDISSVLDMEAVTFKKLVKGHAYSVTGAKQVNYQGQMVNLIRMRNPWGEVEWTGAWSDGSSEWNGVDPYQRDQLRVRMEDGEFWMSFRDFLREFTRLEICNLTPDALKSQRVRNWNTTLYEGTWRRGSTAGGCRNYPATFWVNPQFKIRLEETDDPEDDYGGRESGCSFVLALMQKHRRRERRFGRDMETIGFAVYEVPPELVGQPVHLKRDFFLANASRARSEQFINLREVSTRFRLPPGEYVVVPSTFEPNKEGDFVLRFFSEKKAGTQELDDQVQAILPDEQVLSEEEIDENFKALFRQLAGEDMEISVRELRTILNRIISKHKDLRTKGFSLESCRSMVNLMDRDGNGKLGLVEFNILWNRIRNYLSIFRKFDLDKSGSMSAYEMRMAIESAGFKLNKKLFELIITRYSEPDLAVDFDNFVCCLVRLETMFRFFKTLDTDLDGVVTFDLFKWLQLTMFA
T1 sequence (P04574 1-266 partner): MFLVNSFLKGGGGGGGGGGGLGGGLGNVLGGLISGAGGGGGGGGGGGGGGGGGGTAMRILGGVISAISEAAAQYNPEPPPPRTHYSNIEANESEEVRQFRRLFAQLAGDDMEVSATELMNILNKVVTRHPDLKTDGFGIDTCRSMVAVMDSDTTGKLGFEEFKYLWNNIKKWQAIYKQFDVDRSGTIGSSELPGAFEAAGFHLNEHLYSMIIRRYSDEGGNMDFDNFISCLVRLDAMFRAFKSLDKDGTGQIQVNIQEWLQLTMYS
Assay: μ-Calpain inhibition assay
Type: biochemical

μ-calpain inhibitory potency relative to 2c (diphenylpropionyl (2d) vs diphenylacetyl (2c) N-terminal cap) | fold more potent than 2a and 2b (μ-calpain inhibition) (planar fluorene cap vs cyclohexyl (2a) and adamantyl (2b) caps) | SMILES
about twice as potent | – | CC(C)C[C@H](NC(=O)CC(c1ccccc1)c1ccccc1)C(=O)NC(Cc1ccccc1)C(=O)C(=O)O (stereo partly drawn) [Compound 2d, N-(3,3-Diphenylpropionyl)-L-leucyl-2-oxo-3(R,S)-amino-4-phenylbutanoic acid]
– | over 5 fold | CC(C)C[C@H](NC(=O)CC1c2ccccc2-c2ccccc21)C(=O)NC(Cc1ccccc1)C(=O)C(=O)O (stereo partly drawn) [Compound 2e, N-(9-Fluoreneacetyl)-L-leucyl-2-oxo-3(R,S)-amino-4-phenylbutanoic acid]
